# Values of other authors in article PMC8177775 (Cancer Science, 2021).
# Read-outs that look alike come from different tables or passages of the source.
# Experiments:
# [1] = tested on: advanced solid tumors or lymphomas; conditions: cited from earlier work
# [2] = tested on: human osteosarcoma xenografts; conditions: human osteosarcoma xenografts in nude mice; cited from earlier work
structure (smiles),measurement,setting,value
"CC1(C)CCC2(CC1)N[C@@H](C(=O)N[C@@H]1CC[C@@H](C(N)=O)OC1)[C@H](c1ccnc(Cl)c1F)[C@]21C(=O)Nc2cc(Cl)ccc21 [milademetan, Milademetan]",MTD in US phase I study,[1]; once-daily 21/28-day schedule,120 mg
same,MTD in US phase I study,[1]; once-daily 28/28-day schedule,90 mg
same,Tumor growth of xenografts,[2],suppresses tumor growth
